From US9957276B2, “CDK inhibitors” (G1 THERAPEUTICS, INC., priority 2010, dated 2018) come the findings set out here.

SMILES strings stand for the structures. A value given as a limit tells only on which side of the number the result lay.

For the first assay, the target named is CDK4/CyclinD (Homo sapiens (Human), UniProt P11802). The experiment in a line: CDK4/CyclinD kinase enzymatic assay (Caliper LabChip). The conditions noted are these: compounds as HCl salts, 12-point dose response, at the Km for ATP, three hours. The format is biochemical. The procedure: (§1) Kinase enzymatic reactions were performed in 384-well microplates using a 12-channel Caliper LabChip instrument as a detection device. […] As substrate and product are separated, two peaks of fluorescence are observed. Change in the relative fluorescence intensity of the substrate and product peaks is the parameter measured, reflecting enzyme activity. In the presence of an inhibitor, the ratio between product and substrate is altered. The signal of the product decreases, while the signal of the substrate increases.
Sequence of CDK4/CyclinD (P11802 whole entry, species assumed): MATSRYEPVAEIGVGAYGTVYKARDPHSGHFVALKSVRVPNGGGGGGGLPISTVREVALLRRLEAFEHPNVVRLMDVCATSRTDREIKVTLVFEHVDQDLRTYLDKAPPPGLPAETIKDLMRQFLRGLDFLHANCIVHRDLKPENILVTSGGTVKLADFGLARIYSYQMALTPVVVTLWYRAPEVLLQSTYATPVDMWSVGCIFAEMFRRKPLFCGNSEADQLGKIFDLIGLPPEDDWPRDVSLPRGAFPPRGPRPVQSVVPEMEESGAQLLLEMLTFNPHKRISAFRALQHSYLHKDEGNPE
Sequence of CDK4/CyclinD (P24385 whole entry partner, species assumed): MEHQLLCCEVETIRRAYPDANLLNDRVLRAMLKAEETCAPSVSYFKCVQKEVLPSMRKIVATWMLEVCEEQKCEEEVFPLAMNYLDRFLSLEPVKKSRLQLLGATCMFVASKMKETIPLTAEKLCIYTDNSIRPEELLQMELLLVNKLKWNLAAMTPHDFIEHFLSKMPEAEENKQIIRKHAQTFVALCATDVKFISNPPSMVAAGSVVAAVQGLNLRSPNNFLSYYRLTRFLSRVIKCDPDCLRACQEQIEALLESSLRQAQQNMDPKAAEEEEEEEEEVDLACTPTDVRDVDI
(§2) Potential inhibitor compounds (as HCl salts) were tested using 12-point dose response curves in […] at the Km for ATP. The IC50 of each compound was determined using GraphPad Prism.
Consider `CN1CCN(c2ccc(Nc3ncc4cc5n(c4n3)CCNC5=O)nc2)CC1` [Compound 1], for which the IC50 came to 0.453 µM.

Still in this assay, the particulars now being: from the IC50 values.
Take `CN1CCN(c2ccc(Nc3ncc4cc5n(c4n3)CCNC5=O)nc2)CC1` [Compound 1]: the “selectivity for Cdk4/CycD1 over Cdk2/CycE” value came out at 200 fold. On to `O=C1NCCn2c1cc1cnc(Nc3ccc(N4CCNCC4)cn3)nc12` [Compound 3], for which the “selectivity for Cdk4/CycD1 over Cdk2/CycE” value is 100 fold.

The next assay has as its target CDK2/cyclinE (Homo sapiens (Human), UniProt P24941). As to the kind of experiment: CDK2/cyclinE kinase enzymatic assay (Caliper LabChip). The conditions noted are these: Table 2, class symbols; read-out: CDK2/CycE IC50. The assay is classed as biochemical. The procedure:
as §1, §2
Consider `O=C1N[C@H]2CCC[C@@H]2n2c1cc1cnc(Nc3ccc(N4CCNCC4)cn3)nc12` [Compound 49], for which the IC50 is 1 to 100 µM. Same read-out and setting: the figure for `CN1CCN(c2ccc(Nc3ncc4cc5n(c4n3)CCNC5=O)nc2)CC1` [Compound 1] is greater than 100 µM; for `CCC(C)[C@H]1CN(C)C(=O)c2cc3cnc(Nc4ccc(N5CCNCC5)cn4)nc3n21` (stereo partly shown) [Compound 19] it is greater than 100 µM; for `CC(C)C[C@H]1CN(C)C(=O)c2cc3cnc(Nc4ccc(N5CCNCC5)cn4)nc3n21` [Compound 15] it is greater than 100 µM. As for `CC(C)[C@H]1CN(C)C(=O)c2cc3cnc(Nc4ccc(N5CCNCC5)cn4)nc3n21` [Compound 11], the IC50 was greater than 100 µM.

With `CC(C)CC1CN(C)C(=O)c2cc3cnc(Nc4ccc(N5CCNCC5)cn4)nc3n21` (stereo not shown) [Compound 47], the IC50 was greater than 100 µM. Same read-out and setting: the figure for `CC(C)C1CNC(=O)c2cc3cnc(Nc4ccc(N5CCN(C)CC5)cn4)nc3n21` (stereo not shown) [Compound 7] is greater than 100 µM; for `CCC(C)[C@H]1CN(C)C(=O)c2cc3cnc(Nc4ccc(N5CCN(C)CC5)cn4)nc3n21` (stereo partly shown) [Compound 18] it is greater than 100 µM; for `CN1CCN(c2ccc(Nc3ncc4cc5n(c4n3)[C@H]3CCC[C@@H]3NC5=O)nc2)CC1` [Compound 48] it is greater than 100 µM. On the same count and under the same terms, the figure for `CC(C)C[C@H]1CN(C)C(=O)c2cc3cnc(Nc4ccc(N5CCN(C)CC5)cn4)nc3n21` [Compound 14] is greater than 100 µM; for `CC(C)C1CNC(=O)c2cc3cnc(Nc4ccc(N5CCN(C(=O)OC(C)(C)C)CC5)cn4)nc3n21` (stereo not shown) [Compound 6] it is greater than 100 µM. In the case of `CN1CC2(CCCC2)n2c(cc3cnc(Nc4ccc(N5CCNCC5)cn4)nc32)C1=O` [Compound 31], the IC50 is greater than 100 µM. Still for that read-out and setting: the figure for `CN1CCn2c(cc3cnc(Nc4ccc(N5CCNCC5)cn4)nc32)C1=O` [Compound 5] is greater than 100 µM.
